In patent publication US20260041620A1, “NOVEL AMINO ACID BASED SALTS, COMPOSITIONS AND METHODS FOR TREATING SKIN AND IMPROVING SKIN REJUVENATION AND LONGEVITY” (Sytheon Ltd, priority 2023, published 2026):
Marks after values point to notes of the source that are not given here.

How the values were obtained:
[1] = test system: Type IV Collagen; assay: Type IV Collagen Assay (ELISA, fibroblast culture medium); assay type: cell-based, human; conditions: for Type IV Collagen C-Peptide: 48 hours, untreated 7.76 ± 0.92
Protocol: In the study, human neonatal fibroblasts were seeded into the individual wells of a 48-well plate in 0.25 ml of Fibroblasts Growth Media (FGM) and incubated overnight at 37±2° C. and a 5±1% CO2 atmosphere. On the following day the media was removed via aspiration to eliminate non-adherent cells and replaced with 0.5 ml of fresh FGM. The cells were grown until confluent, with a media change every 48 to 72 hours. Upon reaching confluency the cells were treated for 24 hours with Dulbecco's Modified Eagle's medium (DMED) supplemented with 1.5% Fetal Bovine Serum (FBS) to wash out any effects from the growth factors included in the normal culture media. After this 24-hour wash out period the cells were treated with the test materials at the specified concentrations dissolved in FGM with 1.5% FBS. Sodium ascorbate (10 ug/ml) was used as a positive control. Untreated cells (negative controls) only received DMEM with […], The cells were incubated for 48 hours and at the end of the incubation period, cell culture medium was collected and either stored frozen (−75 C) or assayed immediately. Materials were tested in triplicate.
A series of type IV collagen peptide standards was prepared ranging from 0 ng/ml to 640 ng/ml. 100 μl of each standard or of each of the collected tissue culture media were added to the wells of type IV collagen ELISA plates. The plates were then incubated at 37° C. for 1 hour. After incubation, the ELISA plates were then washed twice with wash buffer, followed by the addition of 100 μl of detection antibody solution. The ELISA plates were then incubated for 1 hour at 37° C. Following incubation, the ELISA plates were washed with wash solution followed by the addition of 100 μl HEP conjugate solution and incubated at 37° C. for 30 minutes. Following the latter incubation, the ELISA plates were again washed and 100 μl of the substrate solution was added to each well and the well plates incubated for 10-30 minutes at room temperature to allow the color generation reaction to occur. At the end of the color generation reaction 100 μl of stop solution (1 N sulfuric acid) was added to each well and the plates read at 460 nm using a plate reader.
To quantify the amount of each substance present, a standard curve was generated using known concentrations of each substance. A regression analysis was performed to establish the line that best fit those data points. Absorbance values for the test materials and untreated samples were used to estimate the amount of each substance present in each sample. Treatment means were compared using ANOVA, with an […] per treatment. Statistical significance was set at p≤0.05.

[2] = test system: normal human adipose-derived mesenchymal stem cells (MSC); assay: Reprograming of aged mesenchymal stem cells, gene expression by qPCR; assay type: cell-based; conditions: 10 ug/ml, 72 hours, starved MSC
Source text: MSCs are a multipotent type of stem cell that, directly or indirectly, have a significant impact on a number of physiological processes, including the proliferation and differentiation of epidermal cells and regeneration of the epidermal layer; however, as they age they show lower stemness and regenerative potential. MSCs are shown to enhance wound healing, to restore the barrier function of the skin, and to address skin aging, particularly aging due to sun exposure as well as natural senescence, including reducing the manifestation and/or degree of wrinkles. An evaluation was conducted to ascertain the effect, if any, of zinc di-(di-n-butyryl lysinate) (“ZDBL”) on MSCs. Specifically, normal human adipose-derived mesenchymal stem cells (MSC) (ATCC, Manassas, VA—PCS-500-011) were seeded in mesenchymal stem cell basal medium (ATCC, Manassas, VA—PCS500-030) supplemented with the MSC growth kit starvation media (ATCC, Manassas, VA—PCS500-040-811S) and cultured at 37° C. in a humidified 5% CO2 atmosphere using an VWR tissue culture incubator, Approximately 24 hours after a portion of the cells was placed in the starvation medium to generate stress, they were exposed to the ZDBL (10 ug/ml) and incubated for 72 hours: the remaining portion was not exposed to the ZDBL. RNA was then extracted for gene expression quantification by qPCR.

[3] = biological target: HDAC1 (Homo sapiens, UniProt Q13547); conditions: reported, abcam; cited from earlier work
[4] = biological target: HDAC2 (Homo sapiens, UniProt Q92769); conditions: reported, abcam; cited from earlier work
[5] = biological target: T1, COX-2 (Homo sapiens, UniProt P35354); assay: biochemical
T1 sequence (P35354 18-604): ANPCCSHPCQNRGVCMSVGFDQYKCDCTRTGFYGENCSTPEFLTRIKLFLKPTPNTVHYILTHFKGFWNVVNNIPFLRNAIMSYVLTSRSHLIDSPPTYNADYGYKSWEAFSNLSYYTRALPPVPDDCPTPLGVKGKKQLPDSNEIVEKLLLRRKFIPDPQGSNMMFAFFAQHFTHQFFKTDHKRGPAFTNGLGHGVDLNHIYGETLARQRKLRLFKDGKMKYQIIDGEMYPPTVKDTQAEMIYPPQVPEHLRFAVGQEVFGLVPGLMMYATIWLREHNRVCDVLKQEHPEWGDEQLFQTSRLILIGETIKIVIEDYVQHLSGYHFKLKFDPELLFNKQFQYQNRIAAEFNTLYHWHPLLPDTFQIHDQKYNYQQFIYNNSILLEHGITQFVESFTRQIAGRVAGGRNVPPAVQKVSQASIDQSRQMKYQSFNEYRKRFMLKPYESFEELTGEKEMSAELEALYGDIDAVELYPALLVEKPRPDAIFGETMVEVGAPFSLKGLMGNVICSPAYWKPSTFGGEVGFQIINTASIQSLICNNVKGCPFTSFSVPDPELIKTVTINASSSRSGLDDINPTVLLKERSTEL
Protocol: A 0.1 gram sample of each test material was dissolved in 1 mL propanediol make a stock solution, each of which was subject to 1 to 2 serial dilutions using buffer for use in determining the IC50 Testing and analysis was performed in accordance with the protocol of the COX-2 Kt (Cayman Catalog #701080) (Cayman catalog #62160).

Sequence of HDAC2 (Q92769 whole entry): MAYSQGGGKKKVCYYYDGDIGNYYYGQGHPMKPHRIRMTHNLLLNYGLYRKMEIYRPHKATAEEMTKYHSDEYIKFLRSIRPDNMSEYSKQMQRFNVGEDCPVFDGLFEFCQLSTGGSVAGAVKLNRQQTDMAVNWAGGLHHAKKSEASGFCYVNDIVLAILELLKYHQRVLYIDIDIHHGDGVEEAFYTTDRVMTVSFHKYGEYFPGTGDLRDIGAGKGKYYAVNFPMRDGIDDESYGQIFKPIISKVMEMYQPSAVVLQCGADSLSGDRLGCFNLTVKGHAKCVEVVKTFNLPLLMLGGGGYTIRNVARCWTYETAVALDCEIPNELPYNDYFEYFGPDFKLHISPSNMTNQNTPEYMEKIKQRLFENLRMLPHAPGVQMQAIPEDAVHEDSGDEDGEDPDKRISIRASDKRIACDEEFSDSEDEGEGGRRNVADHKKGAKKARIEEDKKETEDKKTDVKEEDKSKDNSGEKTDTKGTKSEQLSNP
Sequence of HDAC1 (Q13547 whole entry, species assumed): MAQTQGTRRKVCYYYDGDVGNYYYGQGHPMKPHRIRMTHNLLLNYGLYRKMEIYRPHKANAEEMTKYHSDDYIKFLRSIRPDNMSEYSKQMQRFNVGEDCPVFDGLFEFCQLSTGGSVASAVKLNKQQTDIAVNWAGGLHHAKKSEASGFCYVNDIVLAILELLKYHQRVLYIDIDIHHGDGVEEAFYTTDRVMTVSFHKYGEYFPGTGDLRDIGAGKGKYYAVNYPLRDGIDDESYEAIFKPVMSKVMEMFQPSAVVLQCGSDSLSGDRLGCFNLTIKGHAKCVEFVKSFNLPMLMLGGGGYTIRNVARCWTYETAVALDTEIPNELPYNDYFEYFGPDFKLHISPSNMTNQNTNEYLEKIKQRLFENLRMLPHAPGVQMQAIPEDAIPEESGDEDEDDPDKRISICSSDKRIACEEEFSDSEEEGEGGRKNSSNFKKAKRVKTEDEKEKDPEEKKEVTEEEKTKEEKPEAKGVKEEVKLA

SMILES | Type IV Collagen C-Peptide ([1]; 10 μg/ml) [ng/mL] | boosting of Collagen IV versus control ([1]; 20 μg/ml) [%] | Type IV Collagen C-Peptide ([1]; 20 μg/ml) [ng/mL] | boosting of Collagen IV versus control ([1]; 30 μg/ml) [%] | Type IV Collagen C-Peptide ([1]; 30 μg/ml) [ng/mL] | BMP7 gene expression, Fold Change versus control [2] | DACT1 gene expression, Fold Change versus control [2] | DLK1 gene expression, Fold Change versus control [2] | DPP4 gene expression, Fold Change versus control [2] | OCT4 gene expression, Fold Change versus control [2] | SOX2 gene expression, Fold Change versus control [2] | SQSTM1/p62 gene expression, Fold Change versus control [2] | TP63 gene expression, Fold Change versus control [2] | WNT2 gene expression, Fold Change versus control [2] | Type IV Collagen C-Peptide ([1]; 60 μg/ml) [ng/mL] | Type IV Collagen C-Peptide ([1]; 100 μg/ml) [ng/mL] | Collagen IV boosting activity ([1]; concentrations as high as 100 μg/ml) | IC50 [3] [µM] | IC50 [4] [µM] | IC50 [5] [µM]
CCCC(=O)NCCCC[C@H](NC(=O)CCC)C(=O)[O-].CCCC(=O)NCCCC[C@H](NC(=O)CCC)C(=O)[O-].[Zn+2] [Zn di-(di-n-butyryl lysinate), Zinc di-(di-n-butyryl lysinate)] | 13.41 ± 1.40 | ~250 | 21.19 ± 1.47 | ~320 | 26.98 ± 1.37 | 1.8* fold | 2.2** fold | 2.4** fold | −1.8** fold | 1.7** fold | 2.4* fold | 1.7* fold | 3.0** fold | 1.9** fold |  |  |  |  |  | 
CCCC(=O)[O-].[Na+] [Sodium butyrate, reference compound] | 9.29 ± 0.70 |  |  |  | 7.61 ± 0.70 |  |  |  |  |  |  |  |  |  | 11.88 ± 1.37 | 12.80 ± 1.83 | didn't show any | 300 | 400 | 2670
